Here are results for four compounds from patent US8252737B2, “Antimicrobial peptides and methods of use” (priority 2004, dated 2012).

≈ marks a conversion by molar mass, not a printed value. Where two headings read alike, the source gives them in different places. Square brackets hold non-standard residues; d marks the D form. Peptide text beside a SMILES is read from it.

The nature of data set [1]: RP-HPLC temperature profiling (hydrophobicity and self-association/dimerization parameter PA). The data set is classed as physicochemical. The settings on record: for tR (min) 5° C.: RP-HPLC retention time at 5° C. during temperature profiling (measure of hydrophobicity); for tR (min) 80° C.: RP-HPLC retention time at 80° C. during temperature profiling; for tR (min) Max: maximal RP-HPLC retention time during temperature profiling 5-80° C.; for PA (min) association parameter: maximal retention time difference relative to control peptide C within 5-80° C.; for ΔtR (X-NVL) (min) 5° C. / ΔtR (X-NVL) (min) 80° C.: non-polar face substitutions; for ΔtR (X-NVL) (min) 5° C.: retention time difference relative to native peptide V681 (NVL) at 5° C.; for ΔtR (X-NVL) (min) 80° C.: retention time difference relative to native peptide V681 (NVL) at 80° C. In a few lines:
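RP-HPLC retention times recorded over temperature profiling from 5°C to 80°C, with retention relative to native V681 at each limit used as hydrophobicity. Self-association parameter PA defined as the maximal change in retention time from 5°C, after subtracting that of monomeric random-coil control peptide C.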

The next data set concerns human erythrocytes. As to the kind of experiment: Hemolytic activity (MHC), Protocol A, 12 hours. The settings on record: for minimal hemolytic concentration (MHC): incubation for 12 hours at 37° C. (Tables 7 and 8). The method, boiled down:
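Twofold peptide dilutions incubated with 1% human erythrocytes in phosphate-buffered saline at 37 °C for 12 h; hemoglobin release read spectrophotometrically at 562 nm, or at 570 nm in a repeat. Hemolytic titer taken as the highest 2-fold dilution still releasing hemoglobin, versus peptide-free erythrocytes.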

The next data set concerns gram-negative bacteria. Description: MIC, microtiter dilution, Gram-negative bacteria (geometric mean of 6 strains). The data set is classed as cell-based. The settings on record: for MIC (μg/ml) Gram-negative: geometric mean MIC, Table 9. In a few lines:
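Microtiter broth dilution in LB no-salt or Mueller-Hinton broth (brain heart infusion for P. aeruginosa clinical isolates, inoculum 1×10^6 CFU/ml); overnight 37° C. cultures diluted, plates incubated 37° C. 24 h. MIC is lowest peptide concentration inhibiting growth; value is geometric mean over 6 strains.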

The next data set deals with gram-positive bacteria. In a few lines:
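Microtiter dilution in LB no-salt or Mueller-Hinton medium, with BHI for Pseudomonas aeruginosa clinical isolates (final inoculum 1×10^6 CFU/ml). Plates were incubated 24 hours at 37° C. MIC was the lowest peptide concentration inhibiting growth.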

The mark [2] stands for this setting: minimal hemolytic concentration on human red blood cells (hRBC), Table 9.

Regarding `CC[C@H](C)[C@H](NC(=O)[C@H](C)NC(=O)[C@H](CCCCN)NC(=O)[C@H](CC(C)C)NC(=O)[C@H](C)NC(=O)[C@@H](NC(=O)[C@H](Cc1c[nH]cn1)NC(=O)[C@H](CC(C)C)NC(=O)[C@@H](NC(=O)[C@@H](NC(=O)[C@H](CCCCN)NC(=O)[C@@H](CO)NC(=O)[C@H](C)NC(=O)[C@H](CO)NC(=O)[C@H](CCCCN)NC(=O)[C@H](Cc1ccccc1)NC(=O)[C@@H](NC(=O)[C@H](CCCCN)NC(=O)[C@H](CC(C)C)NC(=O)[C@H](Cc1ccccc1)NC(=O)[C@H](CO)NC(=O)[C@H](CCCCN)NC(=O)[C@H](Cc1c[nH]c2ccccc12)NC(=O)[C@H](CCCCN)NC(C)=O)[C@@H](C)O)[C@@H](C)O)C(C)C)[C@@H](C)O)C(=O)N[C@@H](CO)C(=O)N[C@@H](CO)C(N)=O` [NSD] (Ac-KWKSFLKTFKSA[dS]KTVLHTALKAISS-NH2), in data set [1], the “tR (min) 5° C.” value was determined as 37.02 min, the “tR (min) 80° C.” value turned out to be 34.08 min, the “tR (min) Max” value was found to be 37.12 min and the “PA (min) association parameter” value is recorded as 1.46 min. In addition, in data set [1] (relative hydrophobicity), the “ΔtR (X-NVL) (min) 5° C.” value is -11.08 min and the “ΔtR (X-NVL) (min) 80° C.” value is -11.75 min. Moreover, in the data set with human erythrocytes, the “MHC” value was more than 250.0 µg/mL. Moreover, the “MIC (μg/ml) Gram-negative” value in the data set on gram-negative bacteria was 6.3 µg/mL (≈ 2.14 µM). In the data set on gram-positive bacteria, the “MIC (μg/ml) Gram-positive” value stood at 16.0 µg/mL (≈ 5.42 µM).

Take Ac-KWKSFLKTFKSAGKTVLHTALKAISS-NH2 [NG]: in data set [1], the “tR (min) 5° C.” value worked out at 39.96 min, the “tR (min) 80° C.” value amounted to 36.74 min, the “tR (min) Max” value was found to be 40.22 min and the “PA (min) association parameter” value is reported as 1.64 min. In data set [1] (relative hydrophobicity), the “ΔtR (X-NVL) (min) 5° C.” value is -8.14 min and the “ΔtR (X-NVL) (min) 80° C.” value is -9.09 min. For the same compound, in the data set on human erythrocytes, the “minimal hemolytic concentration (MHC)” value was 125 µg/mL. Also, the “MHC” value with human erythrocytes (setting [2]) turned out to be 125.0 µg/mL. The “MIC (μg/ml) Gram-negative” value with gram-negative bacteria is 4.1 µg/mL. In the data set with gram-positive bacteria, the “MIC (μg/ml) Gram-positive” value came to 7.4 µg/mL.

For `CC[C@H](C)[C@H](NC(=O)[C@H](C)NC(=O)[C@H](CCCCN)NC(=O)[C@H](CC(C)C)NC(=O)[C@H](C)NC(=O)[C@@H](NC(=O)[C@H](Cc1c[nH]cn1)NC(=O)[C@H](CC(C)C)NC(=O)[C@@H](NC(=O)[C@@H](NC(=O)[C@H](CCCCN)NC(=O)[C@@H](NC(=O)[C@H](C)NC(=O)[C@H](NC(=O)[C@H](CCCCN)NC(=O)[C@H](Cc1ccccc1)NC(=O)[C@@H](NC(=O)[C@H](CCCCN)NC(=O)[C@H](CC(C)C)NC(=O)[C@H](Cc1ccccc1)NC(=O)[C@H](CO)NC(=O)[C@H](CCCCN)NC(=O)[C@H](Cc1c[nH]c2ccccc12)NC(=O)[C@H](CCCCN)NC(C)=O)[C@@H](C)O)C(C)C)C(C)C)[C@@H](C)O)C(C)C)[C@@H](C)O)C(=O)N[C@@H](CO)C(=O)N[C@@H](CO)C(N)=O` [PVD] (Ac-KWKSFLKTFK[dV]AVKTVLHTALKAISS-NH2), in data set [1], the “tR (min) 5° C.” value turned out to be 42.96 min, the “tR (min) 80° C.” value was 40.51 min, the “tR (min) Max” value is on record as 43.83 min and the “PA (min) association parameter” value was found to be 2.54 min. Further, in data set [1] (polar face substitutions, retention time difference relative to native peptide V681 (PSL) at 5° C., relative hydrophobicity), the “ΔtR (X-PSL) (min) 5° C.” value was -5.14 min. Also, in data set [1] (polar face substitutions, retention time difference relative to native peptide V681 (PSL) at 80° C., relative hydrophobicity), the “ΔtR (X-PSL) (min) 80° C.” value is -5.32 min. In the data set on human erythrocytes, the “fold decrease in hemolytic activity compared to the L-diastereomer” value was 16 and the “minimal hemolytic concentration (MHC)” value came to 125 µg/mL. Further, in the data set on human erythrocytes (setting [2]), the “MHC” value stood at 125.0 µg/mL. The “MIC (μg/ml) Gram-negative” value in the data set on gram-negative bacteria was 6.1 µg/mL (≈ 2.05 µM). In the data set with gram-positive bacteria, the “MIC (μg/ml) Gram-positive” value came out at 6.6 µg/mL (≈ 2.22 µM).

Turning to `CC[C@H](C)[C@H](NC(=O)[C@H](C)NC(=O)[C@H](CCCCN)NC(=O)[C@H](CC(C)C)NC(=O)[C@H](C)NC(=O)[C@@H](NC(=O)[C@H](Cc1c[nH]cn1)NC(=O)[C@H](CC(C)C)NC(=O)[C@@H](NC(=O)[C@@H](NC(=O)[C@H](CCCCN)NC(=O)[C@@H](C)NC(=O)[C@H](C)NC(=O)[C@H](CO)NC(=O)[C@H](CCCCN)NC(=O)[C@H](Cc1ccccc1)NC(=O)[C@@H](NC(=O)[C@H](CCCCN)NC(=O)[C@H](CC(C)C)NC(=O)[C@H](Cc1ccccc1)NC(=O)[C@H](CO)NC(=O)[C@H](CCCCN)NC(=O)[C@H](Cc1c[nH]c2ccccc12)NC(=O)[C@H](CCCCN)NC(C)=O)[C@@H](C)O)[C@@H](C)O)C(C)C)[C@@H](C)O)C(=O)N[C@@H](CO)C(=O)N[C@@H](CO)C(N)=O` [NAD], in data set [1], the “tR (min) 5° C.” value was found to be 40.49 min, the “tR (min) 80° C.” value was found to be 38.00 min, the “tR (min) Max” value was 41.01 min and the “PA (min) association parameter” value was 2.19 min. The “Hydrophobicity tR5” value in data set [1] (RP-HPLC retention time at pH 2, 5° C.) came to 81.2 min. Further, the “Hydrophobicity tR80” value in data set [1] (RP-HPLC retention time at pH 2, 80° C.) is 73.2 min. In addition, the “PA (dimerization / self-association parameter)” value in data set [1] (maximal retention time difference relative to control peptide C, 5-80° C.) is 4.1. Moreover, in data set [1] (relative hydrophobicity), the “ΔtR (X-NVL) (min) 5° C.” value is -7.61 min and the “ΔtR (X-NVL) (min) 80° C.” value was -7.83 min. Besides, in the data set on human erythrocytes, the “fold decrease in hemolytic activity compared to the L-diastereomer” value was determined as 8 and the “minimal hemolytic concentration (MHC)” value came to 250 µg/mL. Further, the “MIC (μg/ml) GM” value in the data set on gram-negative bacteria (geometric mean of MIC values from all 6 Gram-negative strains of Table 11) stood at 3.1 µg/mL (≈ 1.06 µM). Moreover, the “MIC (μg/ml) GM” value against gram-positive bacteria was found to be 2.8 µg/mL (≈ 0.954 µM).
